We go through one molecule from ChEMBL document CHEMBL3046815, “Evaluation of fungicides for the management of Botryosphaeria dieback diseases of grapevines” (Pest Manag Sci, 2012).

Experiment [1] relates to Neofusicoccum luteum. Put plainly: Fungicidal activity against Neofusicoccum luteum infected Pinot noir grapevine assessed as mean pathogen compound applied 24 hr prior inoculation to pruning wound measured after 1 year. In kind it is functional. Also noted: concentration or dose not given beside the values.
Experiment [2] concerns Neofusicoccum luteum. Put plainly: Fungicidal activity against Neofusicoccum luteum infected Pinot noir grapevine assessed as pathogen incidence at 25 g AI /100 L applied 24 hr prior inoculation to pruning wound measured after 3 months. Format: functional.
The next experiment concerns Diplodia mutila. Put plainly: Fungicidal activity against Diplodia mutila Q assessed as conidial germination inhibition after 48 hr. Format: functional, organism-based. To be noted: pooled result: one value given for 3 cell lines, strains, targets or settings.
Experiment [3] has as its system Neofusicoccum australe. Put plainly: Fungicidal activity against Neofusicoccum australe J-3 assessed as mycelial growth inhibition after 48 hr. Format: functional, organism-based. To be noted: pooled result: one value given for 3 cell lines, strains, targets or settings.
For experiment [4], the system named is Neofusicoccum luteum. Put plainly: Fungicidal activity against Neofusicoccum luteum infected Pinot noir grapevine assessed as pathogen incidence at area beyond node compound applied 24 hr prior inoculation to pruning wound measured after 1 year. In kind it is functional. Further details: concentration or dose not given beside the values.
Experiment [5] relates to Neofusicoccum luteum. Put plainly: Fungicidal activity against Neofusicoccum luteum N(12)2 assessed as mycelial growth inhibition after 48 hr. In kind it is functional, organism-based. To be noted: pooled result: one value given for 3 cell lines, strains, targets or settings.
Experiment [6] relates to Neofusicoccum luteum. Put plainly: Fungicidal activity against Neofusicoccum luteum infected Pinot noir grapevine assessed as pathogen incidence at closest side shoot compound applied 24 hr prior inoculation to pruning wound measured after 6 months. In kind it is functional. Further details: concentration or dose not given beside the values.
In experiment [7] the test system is Neofusicoccum australe. Put plainly: Fungicidal activity against Neofusicoccum australe J-3 assessed as conidial germination inhibition after 48 hr. In kind it is functional, organism-based. The following applies: pooled result: one value given for 3 cell lines, strains, targets or settings.
In experiment [8] the test system is Neofusicoccum luteum. Put plainly: Fungicidal activity against Neofusicoccum luteum infected Pinot noir grapevine assessed as dieback lesion length at 25 g AI /100 L applied 24 hr prior inoculation to pruning wound measured after 3 months. In kind it is functional.
Experiment [9] concerns Neofusicoccum luteum. Put plainly: Fungicidal activity against Neofusicoccum luteum N(12)2 assessed as conidial germination inhibition after 48 hr. In kind it is functional, organism-based. The following applies: pooled result: one value given for 3 cell lines, strains, targets or settings.
The subject of experiment [10] is Neofusicoccum luteum. Put plainly: Fungicidal activity against Neofusicoccum luteum infected Pinot noir grapevine assessed as pathogen incidence at dieback edges compound applied 24 hr prior inoculation to pruning wound measured after 1 year. Format: functional. Further details: concentration or dose not given beside the values.
Experiment [11] has as its system Neofusicoccum luteum. Put plainly: Fungicidal activity against Neofusicoccum luteum infected Pinot noir grapevine assessed as pathogen incidence at dieback sites compound applied 24 hr prior inoculation to pruning wound measured after 1 year. Format: functional. Further details: concentration or dose not given beside the values.
For experiment [12], the system named is Neofusicoccum luteum. Put plainly: Fungicidal activity against Neofusicoccum luteum infected Pinot noir grapevine assessed as non-lesion areas compound applied 24 hr prior inoculation to pruning wound measured after 1 year. In kind it is functional. Further details: concentration or dose not given beside the values.

`COC(=O)Nc1nc2ccccc2[nH]1` [CARBENDAZIM]: the Activity was 9% with Neofusicoccum luteum [1]; 0% with Neofusicoccum luteum [2]; 0% with Neofusicoccum luteum [4]; 3% with Neofusicoccum luteum [6]; 33.2 mm in the experiment on Neofusicoccum luteum [8]; 10% in the experiment with Neofusicoccum luteum [10]. Also, the Activity in the experiment with Neofusicoccum luteum [11] stood at 27%; with Neofusicoccum luteum [12] it was 7%. For the same molecule, the EC50 in the experiment with Diplodia mutila is given as 0.01 mgAi/L; with Neofusicoccum australe [3], 0.023 mgAi/L; in the experiment on Neofusicoccum luteum [5], 0.061 mgAi/L; in the experiment on Neofusicoccum australe [7], 0.01 mgAi/L; with Neofusicoccum luteum [9], 0.04 mgAi/L.
